Experimental findings from ChEMBL document CHEMBL3217408 (Medchemcomm, 2013) are described below.

Series [1] concerns the target T1, Transcriptional activator protein LasR (Pseudomonas aeruginosa (strain ATCC 15692 / PAO1 / 1C / PRS 101 / LMG12228)) (UniProt P25084).
T1 sequence (whole entry): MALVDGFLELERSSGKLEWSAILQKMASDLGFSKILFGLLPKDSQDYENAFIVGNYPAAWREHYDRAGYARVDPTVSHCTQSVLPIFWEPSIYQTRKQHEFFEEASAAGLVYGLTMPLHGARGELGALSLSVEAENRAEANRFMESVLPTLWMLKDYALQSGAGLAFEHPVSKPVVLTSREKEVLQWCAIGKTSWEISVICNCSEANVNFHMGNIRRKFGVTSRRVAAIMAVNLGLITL
The series is described as follows: Antagonist activity at LasR in Pseudomonas aeruginosa PAO1 assessed as inhibition of biofilm formation at 0.3 to 333 uM after 20 hrs by crystal violet staining assay.

The target in series [2] is T1, Transcriptional activator protein LasR (Pseudomonas aeruginosa (strain ATCC 15692 / PAO1 / 1C / PRS 101 / LMG12228)). Particulars: JP2, 200 uM.
Description: Agonist activity at LasR in lasI-rhlI double mutant Pseudomonas aeruginosa JP2 harboring lasI promoter coupled to the luxCDABE box assessed as reduction in luminescence measured at 200 uM after 5 hrs
Series [3] addresses T2, HTH-type quorum-sensing regulator RhlR (Pseudomonas aeruginosa (strain ATCC 15692 / PAO1 / 1C / PRS 101 / LMG12228)) (UniProt P54292).
T2 sequence (whole entry): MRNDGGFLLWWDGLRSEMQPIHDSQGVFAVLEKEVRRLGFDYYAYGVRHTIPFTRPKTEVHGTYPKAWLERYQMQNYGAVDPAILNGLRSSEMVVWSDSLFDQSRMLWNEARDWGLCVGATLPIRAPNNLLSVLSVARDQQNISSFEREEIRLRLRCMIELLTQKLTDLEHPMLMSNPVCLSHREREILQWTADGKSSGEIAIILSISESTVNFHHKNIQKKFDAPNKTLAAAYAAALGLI
The series is described as follows: Antagonist activity at RhlR in lasI-rhlI double mutant Pseudomonas aeruginosa PAO-JP2 harboring lasI promoter coupled to the luxCDABE box assessed as reduction in C4-HSL induced protein measured at 25 to 200 uM after 5 hrs.

Series [4] concerns the target T1, Transcriptional activator protein LasR (Pseudomonas aeruginosa (strain ATCC 15692 / PAO1 / 1C / PRS 101 / LMG12228)). Particulars: JP2, 50 uM.
Description: Antagonist activity at LasR in lasI-rhlI double mutant Pseudomonas aeruginosa JP2 harboring lasI promoter coupled to the luxCDABE box assessed as reduction in C4-HSL induced luminescence measured at 50 uM after 5 hrs
Series [5] has the same target. To be noted: 12 uM.
Description: Antagonist activity at LasR in Pseudomonas aeruginosa PAO1 assessed as inhibition of biofilm formation at 12 uM after 20 hrs by crystal violet staining assay
Series [6] relates to Pseudomonas aeruginosa. As to the kind of experiment: Growth inhibition of lasI-rhlI double mutant Pseudomonas aeruginosa PAO-JP2 harboring lasI promoter coupled to the luxCDABE box measured at >100 uM after 5 hrs. The format is organism-based. To be noted: in vivo.
For series [7], the target named is T1, Transcriptional activator protein LasR (Pseudomonas aeruginosa (strain ATCC 15692 / PAO1 / 1C / PRS 101 / LMG12228)). Particulars: 200 uM.
Description: Inhibition of LasR activation in Pseudomonas aeruginosa PAO1 harboring lasI promoter coupled to the luxCDABE luminescence system assessed as reduction in luminescence measured at 200 uM after 5 hrs
For series [8] the target is unchanged. As to the kind of experiment: Antagonist activity at LasR in Escherichia coli DH5a harboring reporter plasmid lasI-lacZ (pSC11) pJN105L plasmid assessed as inhibition of 3-oxo-C12-HSL induced protein activation by Miller assay method. Particulars: Escherichia coli DH5[alpha].
Series [9] shares this target. As to the kind of experiment: Binding affinity to LasR in Pseudomonas aeruginosa PAO1 at 50 to 100 uM after 24 hrs by gel electrophoresis.
The subject of series [10] is Pseudomonas aeruginosa. As to the kind of experiment: Antibacterial activity against Pseudomonas aeruginosa PAO1 assessed as inhibition of pyocyanin production at 100 uM after 20 hrs. The format is functional. Particulars: PAO1, 20 h.

Structures are written as SMILES. Calls of active or inactive are those of the source. No cut-off for these calls is given here.

For `O=C1C=C(Br)/C(=C/Br)O1`, the inhibition – broadly, how much of the control response was suppressed – in [1] was “Active”.
As for `C[S+]([O-])CCCCN=C=S` (stereo not given) [SULFORAPHANE], in series [2], the inhibition result is “inactive”. Besides, the inhibition result in series [3], in [4], in series [5] and in series [7] was “Active” throughout. Also, the Activity result with Pseudomonas aeruginosa [6] was “Non-toxic”. Also, in series [8], the inhibition entry was “Dose-dependent effect”. For the same compound, the result in series [9] was Active. In addition, the inhibition at 100 µM with Pseudomonas aeruginosa [10] was > 70%.
